Data on one compound can be found in article PMC10142904, “Identification of Novel Cyclooxygenase-1 Selective Inhibitors of Thiadiazole-Based Scaffold as Potent Anti-Inflammatory Agents with Safety Gastric and Cytotoxic Profile” (Molecules, 2023).

The subject of series [1] is carrageenan-induced mouse paw edema. The series is described as follows: Carrageenan-induced mouse paw edema. To be noted: Mus musculus, ip, 3.5 h, i.p., 0.028 mmol/kg, paw weight after 3.5 h. The series is classed as in vivo. As to the method:
All tested compounds were administrated through i.p. with a molar concentration of 0.028 mmol/kg.
The animals were weighed and then randomly divided into control, standard and test groups with each group including 10 mice. […] Edema was induced by injecting 0.1 mL of 1% aqueous solution of carrageenan subcutaneously to the sub-plantar region of the right hind paw, utilizing the left paw as control. The assessed derivatives, in suspended water/Tween-80, were injected i.p. […] After 3.5 h, the hind paws were excised and were weighed separately. The edema paws were estimated as paw weight increase.
(In general: In the carrageenan paw model, swelling and tenderness develop within hours.)

In a further series the test system is gastric mucosa. The series is described as follows: Ulcerogenic activity (gastric lesions after oral dosing). The settings on record: mice, oral 0.028 mmol/kg, 3 successive days, N = 5. The series is classed as in vivo. The protocol: Gastric toxicity was conducted through oral administration of 0.028 mmol/kg of the tested derivatives on mice, and the extent of lesions of the gastric mucosa was measured. […] This study clearly indicated the superiority of our compounds over indomethacin concerning ulcerogenic liability.
The ulcerogenicity effect of compounds was assessed on male mice by following the reported protocol. Male mice weighing 22–25 g were separated into six groups (five animals in each group). […] The placebo control group was administrated saline with few drops of Tween-80. The animals were sacrificed 4 h after the last dose, and the stomachs were inspected for stomach lesions. The scoring of ulcerogenicity was expressed in terms of: average number of ulcers per stomach, percentage incidence of ulcers and percent incidence of ulcer divided by 10. The ulcer index was calculated using the sum of the three above values.

Another series deals with T1, ovine COX-1 (Ovis aries, UniProt P05979).
T1 construct: purchased Cayman Chemical Co., Ann Arbor, MI, USA
T1 sequence (P05979 25-600): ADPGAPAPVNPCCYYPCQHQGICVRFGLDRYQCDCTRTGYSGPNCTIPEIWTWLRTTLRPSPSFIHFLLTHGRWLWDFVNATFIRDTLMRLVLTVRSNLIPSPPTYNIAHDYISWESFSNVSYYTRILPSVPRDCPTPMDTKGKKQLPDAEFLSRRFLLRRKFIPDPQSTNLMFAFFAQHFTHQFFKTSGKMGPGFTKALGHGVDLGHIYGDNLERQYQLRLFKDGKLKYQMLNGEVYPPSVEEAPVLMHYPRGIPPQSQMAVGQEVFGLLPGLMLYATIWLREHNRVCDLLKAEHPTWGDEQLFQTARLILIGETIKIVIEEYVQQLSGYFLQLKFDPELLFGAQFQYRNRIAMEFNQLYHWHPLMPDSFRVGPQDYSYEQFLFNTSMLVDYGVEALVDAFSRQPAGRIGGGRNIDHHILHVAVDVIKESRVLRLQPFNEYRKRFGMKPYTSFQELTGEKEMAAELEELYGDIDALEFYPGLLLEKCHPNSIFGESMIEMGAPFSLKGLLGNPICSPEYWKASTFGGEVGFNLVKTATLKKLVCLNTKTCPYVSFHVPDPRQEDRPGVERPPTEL
The series is described as follows: COX-1 inhibition (Cayman COX Inhibitor Screening Assay). The series is classed as biochemical. The protocol:
(§1) κ-Carrageenan and lipoxygenase type I-B from soybean were obtained from Sigma (St. Louis, MO, USA). COX inhibition was studied utilizing the kit of “COX Inhibitor Screening Assay” (Cayman Chemical Co., Ann Arbor, MI, USA).
(§2) The action of the tested derivatives on COX-1 and COX-2 inhibition was analyzed utilizing a commercial kit furnished by Cayman (Cayman Chemical Co., Ann Arbor, MI, USA) and by applying the instructions of the manufacturer. The kit utilizes human recombinant COX-2 and ovine COX-1 enzymes. […] The assay analyzes PGF2a produced by SnCl2 reduction of COX-derived PGH2.

The subject of the next series is T2, human recombinant COX-2.
T2 construct: purchased Cayman Chemical Co., Ann Arbor, MI, USA
Kind of series: COX-2 inhibition (Cayman COX Inhibitor Screening Assay). Format: biochemical. As to the method:
as §1, §2

The next series deals with T3, soybean LOX.
T3 construct: purchased Sigma (St. Louis, MO, USA)
Kind of series: LOX activity inhibition. The series is classed as biochemical. An excerpt: κ-Carrageenan and lipoxygenase type I-B from soybean were obtained from Sigma (St. Louis, MO, USA). COX inhibition was studied utilizing the kit of “COX Inhibitor Screening Assay” (Cayman Chemical Co., Ann Arbor, MI, USA). In vivo tests, male and female (23–30 g) mice R”’ were stored in the Centre of the School of Veterinary Medicine (EL54-BIO42), (Aristotle University of Thessaloniki, Thessaloniki, Greek), licensed by the state official veterinary authorities (presidential degree 56/2013, in standardization with the European Directive 2010/63/EEC). The experimental protocols were approved by the Committee of Animal Ethics of the Prefecture of Central Macedonia (no. 270079/2500).
The reaction mixture contained the final concentration (300 µΜ) of the test derivatives, dissolved in absolute ethanol (10–300 µM), or the solvent (control), soybean LOX, dissolved in 0.9% NaCl solution (250 u/mL) and sodium linoleate (100 µM), in Tris–HCl buffer, pH 9.0. The reaction was monitored for 7 min at a temperature of 28 °C, noting the absorbance (234 nm) of a conjugated diene structure, following the formation of 13-hydroperoxy-linoleic acid. The performance of the assay was validated utilizing NDGA as a standard. For the evaluation of the inhibition type, the above experiments were repeated, utilizing sodium linoleate (1 mM), which is greater than the saturating substrate concentration.

Another series relates to MRC-5 cells. The series is described as follows: Cytotoxicity / cell proliferation in MRC-5 cells. Format: cell-based, human. To be noted: MRC-5 cells, 0.1, 1 and 10 μM, 48 h. The protocol: The evaluation of cellular cytotoxicity of derivatives 3, 4, 10, 11 and 14 in normal human MRC-5 cells was accomplished at three different concentrations in cell culture, i.e., 0.1, 1 and 10 μM (Figure 7). No substantial effect on cell proliferation after 48 h of exposure was found in cultures, as the growth was ≥98% for all assessed agents by comparison with the control (untreated cells) (Figure 7).
The MRC-5 human cell line from lung fibroblast was stored and then utilized in our laboratory in a conventional manner (passage < 40). MRC-5 cells were cultured (using a humidified atmosphere enclosing 5% CO2 at 37 °C) in medium DMEM with 10% v/v FBS, 1% PS penicillin–streptomycin. The assessed derivatives were dissolved in dimethyl sulfoxide and stored at a temperature of 4 degrees centigrade. For cytotoxicity assessment, cells were seeded in 96-well culture plates at 5 × 10^4 cells/mL (initial density) and permitted to attach for at least 3 h before adding the compounds at increasing concentrations (0.1, 1 and 10 µM). […] To evaluate the cytotoxicity of each derivative, the cells were given an additional 48 h to grow before estimating their number in culture utilizing the Neubauer counting chamber (microscope observation). In every treated culture, cell growth was expressed and reported as the percentage of untreated growing cells. GraphPad Prism 6.0 program was utilized in order to accomplish statistical t-test analysis.
Figure 7 Cell proliferation assessment of MRC-5 cell lines subjected to different derivatives in cell culture. MRC-5 cell lines grown in culture were incubated separately with each of the derivatives at concentrations of 0.1, 1 and 10 μM for 48 h. The cell number was analyzed in cell cultures with microscopic techniques (Neubauer counting chamber), as reported in “Methods” and expressed as % of the proliferation of cultures involving control untreated cells. […] The diagram illustrated above and the t-test statistical analysis were performed utilizing the GraphPad Prism 6.0 program. No significant statistical difference between the control untreated culture cells with each tested derivative was attained.

As for `O=C1NC(=Nc2nnc(C34CC5CC(CC(C5)C3)C4)s2)SC1=Cc1c(Cl)cccc1Cl` [Compound 14], the inhibition in vivo (usually how much of the control response was suppressed) at 28 µmol/kg in series [1] came to 60 ± 1.9%. In the series on gastric mucosa, the “Number of Animals with Ulcer” value is “nil”. Moreover, the “COX-1 Inhibition, Inhibition (%) 200 μΜ” value at ovine COX-1 (200 μΜ) was determined as 100%. Further, on ovine COX-1 (read-out: COX-1 Inhibition, IC50 (μΜ)), the IC50 (usually the concentration that gives 50% inhibition) amounted to 9.62 ± 0.5 µM. In addition, the “COX-2 Inhibition, Inhibition (%) 200 μΜ” value with human recombinant COX-2 is listed as 0%. Besides, the “Enzymatic inhibition against LOX (in words)” value in the series on soybean LOX is “modest enzymatic inhibition”. Also, the “LOX Inhibition (%) 100 μΜ” value with soybean LOX (100 μΜ) was determined as 34.5 ± 1.6 %. Further, the “Cell growth by comparison with the control (untreated cells)” value in the series on MRC-5 cells is reported as no less than 98%.
